Reference: ChEMBL document CHEMBL1157185, “Design and synthesis of benzofuranic derivatives as new ligands at the melatonin-binding site MT3” (Bioorg Med Chem, 2008)

Key:
[1] = Inhibition of MT3 melatonin binding site from hamster brain membrane; design: species or system Cricetinae
[2] = biological target: T1, Melatonin receptor type 1B (Homo sapiens, UniProt P49286); test: Displacement of 2-[125I]iodomelatonin from human MT2 receptor expressed in HEK293 cells; assay type: cell-based
T1 sequence (P49286 whole entry): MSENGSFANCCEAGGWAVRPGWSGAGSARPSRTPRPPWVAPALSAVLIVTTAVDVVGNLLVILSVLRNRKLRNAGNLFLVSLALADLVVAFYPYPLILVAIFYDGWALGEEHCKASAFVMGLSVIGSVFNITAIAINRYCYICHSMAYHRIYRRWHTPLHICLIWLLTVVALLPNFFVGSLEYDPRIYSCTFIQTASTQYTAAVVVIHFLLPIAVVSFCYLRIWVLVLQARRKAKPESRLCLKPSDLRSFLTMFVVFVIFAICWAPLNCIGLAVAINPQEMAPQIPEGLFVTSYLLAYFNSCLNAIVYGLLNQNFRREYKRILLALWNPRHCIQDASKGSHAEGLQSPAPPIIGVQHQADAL

[3] = Selectivity ratio, IC50 for human MT1 melatonin receptor to IC50 for hamster MT3 melatonin binding site
[4] = biological target: Melatonin receptor type 1A (Homo sapiens, UniProt P48039); test: Displacement of 2-[125I]iodomelatonin from human MT1 receptor expressed in HEK293 cells; assay type: cell-based
Melatonin receptor type 1A, sequence (P48039 whole entry): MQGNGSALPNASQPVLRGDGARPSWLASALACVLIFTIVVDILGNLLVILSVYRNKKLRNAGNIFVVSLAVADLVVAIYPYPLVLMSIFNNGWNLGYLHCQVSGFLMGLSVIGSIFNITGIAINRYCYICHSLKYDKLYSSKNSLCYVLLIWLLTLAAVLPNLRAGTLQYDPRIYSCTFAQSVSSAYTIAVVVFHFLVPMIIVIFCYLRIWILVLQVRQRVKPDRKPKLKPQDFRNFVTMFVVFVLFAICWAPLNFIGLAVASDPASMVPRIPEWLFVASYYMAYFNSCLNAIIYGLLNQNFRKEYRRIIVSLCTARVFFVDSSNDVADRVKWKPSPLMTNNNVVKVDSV

[5] = Selectivity ratio, IC50 for human MT2 melatonin receptor to IC50 for hamster MT3 melatonin binding site

| SMILES | IC50 [1] [nM] | Ki [1] [nM] | IC50 [2] [nM] | Ratio IC50 [3] | IC50 [4] [nM] | Ratio IC50 [5] |
| --- | --- | --- | --- | --- | --- | --- |
| COc1cc2nc(N3CCN(C(=O)c4ccco4)CC3)nc(N)c2cc1OC [PRAZOSIN] | 7.8 | – | – | – | – | – |
| COc1ccc2c(c(CCNC(C)=O)c(I)n2C)c1[N+](=O)[O-] | – | 0.3 | – | – | – | – |
| CNC(=O)c1ccc2occ(CCNC(C)=O)c2c1 | 12 | – | > 1000 | 16 | 189 | > 83 |
| COC(=O)c1ccc2occ(CCNC(=O)c3ccco3)c2c1 | 53 | – | > 10000 | > 188 | > 10000 | > 188 |
| COC(=O)c1ccc2occ(CCNC(C)=O)c2c1 | 14 | – | – | – | – | – |
| CC(=O)NCCc1coc2ccc(NC(=O)C(F)(F)F)cc12 | – | – | 2000 | – | > 10000 | – |
| C=CCC(=O)NCCc1coc2ccc(NC(=O)OC)cc12 | 11 | – | 560 | 244 | 2690 | 51 |
| COc1ccc2occ(CCNC(C)=O)c2c1 | 64 | – | – | – | – | – |
| COC(=O)Nc1ccc2occ(CCNC(=O)C3CCCC3)c2c1 | – | – | 5320 | – | 5320 | – |
| COC(=O)Nc1ccc2occ(CCNC(=O)C(C)C)c2c1 | 23 | – | 4580 | 232 | 5350 | 199 |
| COC(=O)Nc1ccc2[nH]cc(CCNC(C)=O)c2c1 | – | – | 4000 | – | 1000 | – |
| COC(=O)Nc1ccc2occ(CCNC(=O)C3CC3)c2c1 | 24 | – | 5900 | 340 | 8180 | 245 |
| COC(=O)c1ccc2occ(CCNC(=O)C3CCCC3)c2c1 | 18 | – | 389 | 215 | 3880 | 21.6 |
| COc1cc2c(cc1OC)-c1c(c3cc(O)ccc3n1C)C2=O | – | 0.19 | – | – | – | – |
| CNC(=O)c1ccc2occ(CCNC(=O)C3CCCC3)c2c1 | – | – | > 10000 | – | > 10000 | – |
| COC(=O)Nc1ccc2occ(CCNC(C)=O)c2c1 | 16 | – | – | – | – | – |
| COC(=O)c1ccc2occ(CCNC(=O)C(C)C)c2c1 | 65 | – | – | – | – | – |
| NC(=O)c1ccc2occ(CCNC(=O)c3ccco3)c2c1 | 67 | – | > 10000 | > 149 | > 10000 | > 149 |
| COC(=O)Nc1ccc2occ(CCNC(=O)c3ccco3)c2c1 | 56 | – | > 10000 | > 178 | > 10000 | > 178 |
| CC(=O)NCCc1coc2ccc(C(N)=O)cc12 | 82 | – | 1000 | > 122 | > 10000 | 12 |
| CNC(=O)c1ccc2occ(CCNC(=O)C3CC3)c2c1 | 41 | – | > 10000 | > 29 | 1220 | > 244 |
